Holding throughout (assay): Bliss excess, mean over the matrix (fraction); higher = more synergy
The subject of assay [1] is U-118-MG (Low Grade Glioma). In a few lines:
(§1)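 Cell lines in DMEM/F12 or RPMI with 10% FBS were plated in 1536-well plates, held 24 hours at 37°C, 5% CO2, then given two-drug dose matrices for 72 hours (DMSO typically 0.2%). Viability was read by CellTiter-Glo 2.0 luminescence and scaled as inhibition from 0 (vehicle wells) to 1 (blank wells). Combination Emax is the second-highest inhibition in the matrix; Bliss excess is observed combination effect minus expected EA + EB − EA·EB, EA and EB being single-agent effects.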

Another assay deals with A172 (Glioblastoma). The gist of the method:
as §1

Assay [2] relates to ETK-1 (Biliary Tract Carcinoma). In a few lines:
as §1

Assay [3] deals with HCT-116 (Colorectal Carcinoma). The gist of the method:
as §1

The test system of another assay is EW-22 (Ewing's Sarcoma). The gist of the method:
as §1

For assay [4], the system named is YT (Other Blood Carcinomas). The gist of the method: as §1
The subject of a further assay is SK-MEL-1 (Melanoma). In a few lines: as §1
For assay [5], the system named is HOP-92 (Non-Small Cell Lung Carcinoma). In a few lines:
as §1

The test system of assay [6] is SLVL (B-Cell Non-Hodgkin's Lymphoma). The gist of the method:
as §1

The test system of assay [7] is EKVX (Non-Small Cell Lung Carcinoma). In a few lines:
as §1

Assay [8] concerns SK-UT-1 (Other Solid Carcinomas). In a few lines: as §1
For assay [9], the system named is JHH-6 (Hepatocellular Carcinoma). The gist of the method:
as §1

The test system of assay [10] is DOK (Oral Cavity Carcinoma). In a few lines:
as §1

Assay [11] deals with BICR78 (Oral Cavity Carcinoma). The gist of the method:
as §1

In assay [12] the test system is GDM-1 (Acute Myeloid Leukemia). In a few lines: as §1
Assay [13] relates to EFM-192A (Breast Carcinoma). In a few lines:
as §1

Assay [14] deals with WSU-DLCL2 (B-Cell Non-Hodgkin's Lymphoma). In a few lines:
as §1

The test system of assay [15] is MEG-01 (Chronic Myelogenous Leukemia). In a few lines:
as §1

Assay [16] concerns PA-TU-8902 (Pancreatic Carcinoma). In a few lines:
as §1

Assay [17] has as its system CAL-39 (Other Solid Carcinomas). In a few lines: as §1
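Also: after 72 h of two-drug dosing.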

Consider `CC1(C)CCC(CN2CCN(c3ccc(C(=O)NS(=O)(=O)c4ccc(NCC5CCOCC5)c([N+](=O)[O-])c4)c(Oc4cnc5[nH]ccc5c4)c3)CC2)=C(c2ccc(Cl)cc2)C1` [Venetoclax] + Cc1cc2ncnn2cc1Nc1ncc2c(n1)n(C1CCOCC1)c(=O)n2C [AZD7648] (first compound max 1 µM, 7x7, partner max 10 µM), for which the Bliss excess in assay [1] is -0.0148; with A172 (Glioblastoma), -0.0385; in assay [2], 0.0273; in assay [3], 0.0048; with EW-22 (Ewing's Sarcoma) it was -0.0094; in [4] it was -0.0667. The Bliss excess was -0.0242 in the assay on SK-MEL-1 (Melanoma); -0.0194 in [5]; 0.0013 in [6]; -0.0788 in [7]; -0.0119 in assay [8]; -0.0302 in [9]. In addition, the Bliss excess in [10] was -0.0208; in [11], -0.0493; in assay [12] it was 0.0419; in assay [13] it was -0.0046; in assay [14], 0.0706; in assay [15] it was -0.0249. Also, the Bliss excess in assay [16] is -0.0715; in [17] it was -0.104.
Turning to `CC1(C)CCC(CN2CCN(c3ccc(C(=O)NS(=O)(=O)c4ccc(NCC5CCOCC5)c([N+](=O)[O-])c4)c(Oc4cnc5[nH]ccc5c4)c3)CC2)=C(c2ccc(Cl)cc2)C1` [Venetoclax] + Cn1cnc2c(F)c(Nc3ccc(Br)cc3Cl)c(C(=O)NOCCO)cc21 [Selumetinib] (first compound max 1 µM, 7x7, partner max 3 µM), the Bliss excess in assay [1] was -0.0336; with A172 (Glioblastoma), -0.0176; in assay [2], -0.0333; in assay [3] it was -0.0255; with EW-22 (Ewing's Sarcoma) it was -0.0233; in [4], 0.0297. The Bliss excess with SK-MEL-1 (Melanoma) was -0.0332; in [5], -0.0338; in assay [6], 0.0299; in [7], -0.0732; in assay [8] it was 0.0043; in assay [9], -0.0252. Besides, the Bliss excess is -0.0258 in [10]; -0.0354 in [11]; 0.0554 in assay [12]; -0.0245 in assay [13]; 0.0196 in assay [14]; -0.0242 in assay [15]. Besides, the values for the Bliss excess in assay [16] and in assay [17] were -0.0178 and 0.0138, respectively.

Values taken from the supplement of paper PMC11061612.
